In patent publication US11279711B2, “Condensed heterocyclic derivates as BCL-2 inhibitors for the treatment of neoplastic diseases” (Newave Pharmaceutical Inc., priority 2017, dated 2022):
Values belong to the compound of their own block, whether it stands above or below them.

How the values were obtained:
[1] = tested on: xenograft models of small-cell lung cancer and acute lymphoblastic leukemia; details: oral administration, alone; cited from earlier work
H345 xenograft = details: 100 mg/kg/day, H345 xenograft model; cited from earlier work
circulating platelets = details: clinical trial; dose-limiting thrombocytopenia; cited from earlier work
Bcl-w = target: T1, Bcl-w (Homo sapiens, UniProt Q92843); details: cited from earlier work
T1 sequence (Q92843 1-193): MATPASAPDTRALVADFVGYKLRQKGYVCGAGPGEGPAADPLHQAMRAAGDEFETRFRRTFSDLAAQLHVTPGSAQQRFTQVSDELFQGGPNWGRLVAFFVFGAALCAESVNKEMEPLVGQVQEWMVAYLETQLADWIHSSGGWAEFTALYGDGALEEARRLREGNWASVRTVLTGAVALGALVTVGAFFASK

H1963 = test: In vitro anti-proliferation assay (ATPlite), small cell lung cancer cell line H1963; type: cell-based; details: 5% FBS, about 72 hours
Experimental: (§1) Biological Example 3: In Vitro Anti-Proliferation Assay in Small Cell Lung Cancer (SCLC) Cell Line
(§2) Cell antiproliferation was assayed by PerkinElmer ATPlite™ Luminescence Assay System. Briefly, the various test cancer cell lines were plated at a density of about 1×10^4 cells per well in Costar 96-well plates, and were incubated with different concentrations of compounds for about 72 hours in medium supplemented with 5% FBS. One lyophilized substrate solution vial was then reconstituted by adding 5 mL of substrate buffer solution, and was agitated gently until the solution was homogeneous. About 50 μL of mammalian cell lysis solution was added to 100 μL of cell suspension per well of a microplate, and the plate was shaken for about five minutes in an orbital shaker at ˜700 rpm. This procedure was used to lyse the cells and to stabilize the ATP. Next, 50 μL substrate solution was added to the wells and microplate was shaken for five minutes in an orbital shaker at ˜700 rpm. Finally, the luminescence was measured by a PerkinElmer TopCount® Microplate Scintillation Counter. Such assays, carried out with a range of doses of test compounds, allowed the determination of the cellular anti-antiproliferative IC50 of the compounds of the present invention.
(§3) Cisplatin, the standard of Care of small cell lung cancer cell lines was used as the positive control drug.

SCLC H146 cell line = details: read-out: IC50 against SCLC H146 cell line; cited from earlier work
H889 = test: In vitro anti-proliferation assay (ATPlite), small cell lung cancer cell line H889; type: cell-based; details: 5% FBS, about 72 hours
Experimental: as §1, §2, §3

H146 = test: In vitro anti-proliferation assay (ATPlite), small cell lung cancer cell line H146; type: cell-based; details: 5% FBS, about 72 hours
Experimental: as §1, §2, §3

RS4;11 cells = details: cited from earlier work
Mcl-1 = Mcl-1 (Homo sapiens, UniProt Q07820); details: cited from earlier work
Chain of Mcl-1 (Q07820 whole entry): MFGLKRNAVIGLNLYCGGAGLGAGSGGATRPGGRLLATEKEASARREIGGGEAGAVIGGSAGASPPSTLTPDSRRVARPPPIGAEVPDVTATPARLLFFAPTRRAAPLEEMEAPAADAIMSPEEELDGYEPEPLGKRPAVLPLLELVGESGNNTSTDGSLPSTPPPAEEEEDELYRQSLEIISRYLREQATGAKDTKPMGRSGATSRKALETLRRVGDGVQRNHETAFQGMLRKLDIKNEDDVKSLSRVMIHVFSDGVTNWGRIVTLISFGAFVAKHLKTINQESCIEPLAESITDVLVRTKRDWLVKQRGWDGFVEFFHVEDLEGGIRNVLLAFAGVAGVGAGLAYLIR

Granta = test: In vitro anti-proliferation assay (ATPlite), Granta; type: cell-based; details: 5% FBS, about 72 hours
Experimental: as §1, §2

CLL = details: read-out: average EC50, apoptosis in CLL; cited from earlier work
Toledo = test: In vitro anti-proliferation assay (ATPlite), Toledo; type: cell-based; details: Homo sapiens, 5% FBS, about 72 hours
Experimental: as §1, §2

[2] = tested on: BCL-2-dependent acute lymphoblastic leukemia (ALL) cell line RS4;11; test: In vitro anti-proliferation assay (ATPlite) in RS4;11; type: cell-based; details: Homo sapiens; RS4;11, 5% FBS, about 72 hours; read-out: IC50, RS4; 115% FBS
Experimental: Biological Example 2: In Vitro Anti-Proliferation Assay in BCL-2-Dependent Acute Lymphoblastic Leukemia (ALL) Cell Line RS4;11
as §2, with “with 5% FBS or 10% normal human serum (NHS). One lyophilized” for “with 5% FBS. One lyophilized”, “shaker at −700 rpm. This” for “shaker at ˜700 rpm. This”, “present invention. The following table lists the IC50 values of certain compounds of the invention.” for “present invention.”

MV411 = test: In vitro anti-proliferation assay (ATPlite), MV411; type: cell-based; details: Homo sapiens, MV4-11; 5% FBS, about 72 hours
Experimental: as §1, §2

RS4;11 xenografts = details: single dose of 100 mg/kg; cited from earlier work
[3] = Mice PK study, oral dosing; type: in vivo; details: CD-1 mouse, 10 mg/kg; for AUC(0-t) / bioavailability / half-life: plasma; for bioavailability: read-out: Bioavailabilty; for half-life: read-out: t ½ (converted)
Experimental: Biological Example 4: Mice PK Study
The pharmacokinetics of compounds were evaluated in CD-1 mouse via Intravenous and Oral Administration. The IV dose was administered as a slow bolus in the Jugular vein, and oral doses were administered by gavage. The formulation for IV dosing was 5% DMSO in 20% HPBCD in water, and the PO formulation was 2.5% DMSO, 10% EtOH, 20% Cremphor EL, 67.5% D5W. The PK time point for the IV arm was 5, 15, 30 min, 1, 2, 4, 6, 8, 12, 24 hours post dose, and for PO arm was 15, 30 min, 1, 2, 4, 6, 8, 12, 24 hours post dose. Approximately 0.03 mL blood was collected at each time point. Blood of each sample was transferred into plastic micro centrifuge tubes containing EDTA-K2 and collect plasma within 15 min by centrifugation at 4000 g for 5 minutes in a 4° C. centrifuge. Plasma samples were stored in polypropylene tubes. The samples were stored in a freezer at −75±15° C. prior to analysis. Concentrations of compounds in the plasma samples were analyzed using a LC-MS/MS method. WinNonlin (Phoenix™, version 6.1) or other similar software was used for pharmacokinetic calculations. The following pharmacokinetic parameters were calculated, whenever possible from the plasma concentration versus time data: IV administration: C0, CL, Vd, T1/2, AUCinf, AUClast, MRT, Number of Points for Regression; PO administration: Cmax, Tmax, T1/2, AUCinf, AUClast, F %, Number of Points for Regression. The pharmacokinetic data was described using descriptive statistics such as mean, standard deviation. Additional pharmacokinetic or statistical analysis was performed at the discretion of the contributing scientist, and was documented in the data summary.

[4] = in vivo; cited from earlier work
[5] = cited from earlier work

- IC50 (H1963; Homo sapiens, NCI-H1963): 41.7 nM
- IC50 (H889; Homo sapiens, NCI-H889): 32.4 nM
- IC50 (H146; Homo sapiens, NCI-H146): 28 nM
SMILES: CC1(C)CCC(c2ccc(Cl)cc2)=C(CN2CCN(c3ccc(C(=O)NS(=O)(=O)c4ccc(N[C@H](CCN5CCOCC5)CSc5ccccc5)c(S(=O)(=O)C(F)(F)F)c4)cc3)CC2)C1 [ABT-263]
- tumor regression [1]: complete tumor regressions
- TGI (H345 xenograft): 80%
- treated tumors indicating at least a 50% reduction in tumor volume (H345 xenograft): 20%
- number of circulating platelets (circulating platelets): rapid, concentration-dependent decrease in the number of circulating platelets
- Ki (Bcl-w): ≤ 1 nM
- IC50 (SCLC H146 cell line): 110 nM

- IC50 [2]: 5.8 nM
- IC50 (MV411): 20.1 nM
SMILES: CC1(C)CCC(CN2CCN(c3ccc(C(=O)NS(=O)(=O)c4ccc(NCC5CCOCC5)c([N+](=O)[O-])c4)c(Oc4cnc5[nH]ccc5c4)c3)CC2)=C(c2ccc(Cl)cc2)C1 [ABT-199]
- EC50 (RS4;11 cells): 8 nM
- activity to Mcl-1 (Mcl-1): no activity
- IC50 (Granta): 42.5 nM
- EC50 (CLL): 3 nM
- IC50 (Toledo): 98.1 nM
- maximal tumor growth inhibition (RS4;11 xenografts): 95%
- tumor growth delay (RS4;11 xenografts): 152%

SMILES: CC1(C)CCC(CN2CCN(c3ccc(C(=O)NS(=O)(=O)c4ccc(NC[C@H]5COCCO5)c([N+](=O)[O-])c4)c(N4CCCOc5nc6[nH]ccc6cc54)c3)CC2)=C(c2ccc(Cl)cc2)C1 [Example 9, 4-(4-[[2-(4-chlorophenyl)-4,4-dimethylcyclohex-1-en-1-yl]methyl]piperazin-1-yl)-N-[4-([[(2S)-1,4-dioxan-2-yl]methyl]amino)-3-nitrobenzenesulfonyl]-2-[14-oxa-2,4,10-triazatricyclo[7.5.0.0^[3,7]]tetradeca-1(9),2,5,7-tetraen-10-yl]benzamide]
- AUClast(h * ng/mL) [3]: 8,168 h * ng/mL
- Bioavailabilty [3]: 64%
- t ½ [3]: 2.3 h
- IC50 (H1963): 4.7 nM
- IC50 (H889): 0.7 nM
- IC50 (H146): 33 nM

- IC50 [2]: 0.12 nM
- AUC(0-t) [3]: 9300 ng·h/mL
- bioavailability [3]: 49%
- half-life [3]: 4.3 h
- IC50 (MV411): 1.6 nM
- IC50 (H1963; Homo sapiens, NCI-H1963): 5.6 nM
- IC50 (H889; Homo sapiens, NCI-H889): 1 nM
- IC50 (H146; Homo sapiens, NCI-H146): 64 nM
SMILES: CC1(C)CCC(CN2CCN(c3ccc(C(=O)NS(=O)(=O)c4ccc(NCC5CCOCC5)c([N+](=O)[O-])c4)c(N4CCCOc5nc6[nH]ccc6cc54)c3)CC2)=C(c2ccc(Cl)cc2)C1 [Example 2, 4-(4-((4′-chloro-5,5-dimethyl-3,4,5,6-tetrahydro-[1,1′-biphenyl]-2-yl)methyl)piperazin-1-yl)-2-(3,4-dihydro-2H-pyrrolo[3′,2′:5,6]pyrido[2,3-b][1,4]oxazepin-1(7H)-yl)-N-((3-nitro-4-(((tetrahydro-2H-pyran-4-yl)methyl)amino)phenyl)sulfonyl)benzamide]
- IC50 (Granta): 3.5 nM
- IC50 (Toledo): 8.1 nM

- IC50 [2]: < 0.1 nM
- AUC(0-t) [3]: 4160 ng·h/mL
- bioavailability [3]: 30%
- half-life [3]: 2.6 h
- IC50 (H1963; Homo sapiens, NCI-H1963): 4.2 nM
- IC50 (H889; Homo sapiens, NCI-H889): 0.9 nM
- IC50 (H146; Homo sapiens, NCI-H146): 43 nM
SMILES: CC1(C)CCC(CN2CCN(c3ccc(C(=O)NS(=O)(=O)c4ccc(NCC5(F)CCOCC5)c([N+](=O)[O-])c4)c(N4CCCOc5nc6[nH]ccc6cc54)c3)CC2)=C(c2ccc(Cl)cc2)C1 [Example 3, 4-(4-((4′-chloro-5,5-dimethyl-3,4,5,6-tetrahydro-[1,1′-biphenyl]-2-yl)methyl)piperazin-1-yl)-2-(3,4-dihydro-2H-pyrrolo[3′,2′:5,6]pyrido[2,3-b][1,4]oxazepin-1(7H)-yl)-N-((4-(((4-fluorotetrahydro-2H-pyran-4-yl)methyl)amino)-3-nitrophenyl)sulfonyl)benzamide]

SMILES: CN(C)CC[C@H](CSc1ccccc1)Nc1ccc(S(=O)(=O)NC(=O)c2ccc(N3CCN(Cc4ccccc4-c4ccc(Cl)cc4)CC3)cc2)cc1[N+](=O)[O-] [ABT-737]
- oral bioavailability [4]: not orally bioavailable
- aqueous solubility [5]: low aqueous solubility

SMILES: CC1(C)CCC(CN2CCN(c3ccc(C(=O)NS(=O)(=O)c4ccc(NC[C@@H]5COCCO5)c([N+](=O)[O-])c4)c(N4CCCOc5nc6[nH]ccc6cc54)c3)CC2)=C(c2ccc(Cl)cc2)C1 [Example 8, 4-(4-[[2-(4-chlorophenyl)-4,4-dimethylcyclohex-1-en-1-yl]methyl]piperazin-1-yl)-N-[4-([[(2R)-1,4-dioxan-2-yl]methyl]amino)-3-nitrobenzenesulfonyl]-2-[14-oxa-2,4,10-triazatricyclo[7.5.0.0^[3,7]]tetradeca-1(9),2,5,7-tetraen-10-yl]benzamide]
- AUClast(h * ng/mL) [3]: 5,714 h * ng/mL
- Bioavailabilty [3]: 44%
- t ½ [3]: 2.3 h
- IC50 (H1963): 5.3 nM
- IC50 (H889): 0.7 nM
- IC50 (H146): 50 nM

SMILES: N.N.[Cl][Pt][Cl] [Cisplatin, reference compound]
- IC50 (H1963): 1670 nM
- IC50 (H889): 7080 nM
- IC50 (H146): 4590 nM
